{
  "source": "patent US20090041839A1",
  "about": "“PHARMACEUTICAL COMPOSITIONS FOR THE TREATMENT OF PAIN” (priority 2007, published 2009)",
  "test": "Multiple escalating dose pharmacokinetic study of T-62 soft gelatin capsules (Example 12)",
  "type": "in vivo",
  "settings": "both sexes, human, plasma, healthy adults; for Tmax: median; for AUC(0-inf) / Cmax / AUC: po, arithmetic mean (SD); for AUC: τ = 12 hours, read-out: AUC0-τ",
  "method": "A single-center, randomized, double-blind, parallel-group, placebo-controlled study of the safety, tolerability, and pharmacokinetics of escalating multiple doses of a T-62 composition in soft gelatin capsules (oral dosage form 4) in healthy adult male and female subjects was carried out.\nThree cohorts of 12 subjects were enrolled for the study (19-38 years of age). Subjects in each cohort were randomly assigned in a 3:1 allocation to receive multiple doses of either T-62 (n=9) or placebo (n=3). Subjects in each cohort received study medication for a total of 6 days. Subjects in the first cohort received multiple doses of 100 mg T-62 or placebo. Subsequent cohorts of 12 new subjects each received multiple doses of placebo or a higher dose level of T-62 (i.e., 2×100 mg for the second cohort and 4×100 mg for the third cohort).\nEach subject in each dosing cohort completed Screening, Baseline, Treatment, and Follow-Up Phases. The Screening Phase was conducted on an outpatient basis within 30 days, but no less than 3 days, prior to the start of the Baseline Phase. The Baseline Phase consisted of clinical research unit (CRU) admission and final qualification assessments. The Treatment Phase comprised of dosing, post-treatment safety assessments, and blood collection.\nOn the morning of Day 1, subjects received a single dose of study drug; no additional study drug were administered on Day 1. Twice-daily dosing (one morning dose and one evening dose) commenced on Day 2 and continue through Day 5. Subjects received a final dose of study drug on the morning of Day 6. Once subjects in each cohort had completed dosing, an additional 48 hours of blood sampling was conducted following the final dose to characterize the pharmacokinetics of T-62 at steady state. Subjects were discharged at the end of the 48-hour blood sampling (Day 8). The Follow-Up Phase occurred 2 days (but no more than 4 days) after discharge from the CRU.\nFor all cohorts, on Day 2 through Day 5, subjects were not allowed to eat any food beginning 1 hour prior to the morning and evening doses of study drug and until 2 hours after study drug administration. On Day 1 and Day 6, subjects fasted for a minimum of 9 hours pre-dose to 4 hours post-dose.\nBlood samples for determining plasma concentrations of T-62 and pharmacokinetic parameters were obtained immediately prior to dosing on Day 1 and at regular intervals post-dosing over 12 hours in each treatment cohort. On Days 2-5, blood samples for pharmacokinetic analysis were collected each day prior to the morning and evening doses of study drug. Once subjects in each cohort had completed dosing on Day 6, an additional 48 hours of plasma sampling were conducted following the final dose of study drug to characterize the pharmacokinetics of T-62 at steady state.",
  "key": {"[1]": {"settings": "200 mg, Day 1, single dose 2 × 100 mg (oral dosage form 4), n = 9"}, "[2]": {"settings": "400 mg, Day 1, single dose 4 × 100 mg (oral dosage form 4), n = 9"}, "[3]": {"settings": "100 mg, Day 1, single dose 100 mg (oral dosage form 4), n = 8"}, "[4]": {"settings": "100 mg, Steady state (Day 6), 100 mg BID (oral dosage form 4), n = 8"}, "[5]": {"settings": "200 mg, Steady state (Day 6), 2 × 100 mg BID (oral dosage form 4), n = 9"}, "[6]": {"settings": "400 mg, Steady state (Day 6), 4 × 100 mg BID (oral dosage form 4), n = 9"}},
  "note": "Read-outs that look alike come from different tables or passages of the source.",
  "data": [
    {"smiles": "Nc1sc2c(c1C(=O)c1ccc(Cl)cc1)CCCC2", "note": "[T-62, (2-amino-4,5,6,7-tetrahydrobenzo[b]thiophen-3-yl)(4-chlorophenyl)-methanone]", "values": [
      {"measurement": "Tmax", "setting": "[1]", "result": 1, "unit": "h"},
      {"measurement": "Tmax", "setting": "[2]", "result": 2, "unit": "h"},
      {"measurement": "AUC(0-inf)", "setting": "[3]", "result": 96.9, "unit": "ng·h/mL"},
      {"measurement": "Cmax", "setting": "[3]", "result": 28.8, "unit": "ng/mL"},
      {"measurement": "AUC", "setting": "[3]", "result": 89.5, "unit": "ng·h/mL"},
      {"measurement": "AUC(0-inf)", "setting": "[4]", "result": 407, "unit": "ng·h/mL"},
      {"measurement": "Cmax", "setting": "[4]", "result": 55.9, "unit": "ng/mL"},
      {"measurement": "AUC", "setting": "[4]", "result": 197, "unit": "ng·h/mL"},
      {"measurement": "AUC(0-inf)", "setting": "[1]", "result": 254, "unit": "ng·h/mL"},
      {"measurement": "Cmax", "setting": "[1]", "result": 60.7, "unit": "ng/mL"},
      {"measurement": "AUC", "setting": "[1]", "result": 211, "unit": "ng·h/mL"},
      {"measurement": "AUC(0-inf)", "setting": "[5]", "result": 995, "unit": "ng·h/mL"},
      {"measurement": "Cmax", "setting": "[5]", "result": 107, "unit": "ng/mL"},
      {"measurement": "AUC", "setting": "[5]", "result": 450, "unit": "ng·h/mL"},
      {"measurement": "AUC(0-inf)", "setting": "[2]", "result": 496, "unit": "ng·h/mL"},
      {"measurement": "Cmax", "setting": "[2]", "result": 71.4, "unit": "ng/mL"},
      {"measurement": "AUC", "setting": "[2]", "result": 399, "unit": "ng·h/mL"},
      {"measurement": "AUC(0-inf)", "setting": "[6]", "result": 2210, "unit": "ng·h/mL"},
      {"measurement": "Cmax", "setting": "[6]", "result": 179, "unit": "ng/mL"},
      {"measurement": "AUC", "setting": "[6]", "result": 958, "unit": "ng·h/mL"},
      {"measurement": "Tmax", "setting": "Day 1, single dose 100 mg (oral dosage form 4), n = 8", "result": 1, "unit": "h"}
    ]}
  ]
}
